Assay [1] addresses T1, rat nAChR α3β2 (Rattus norvegicus, UniProt P04757+P12390).
T1 construct: expressed in transfected cells; host or cells: Xenopus oocytes injected with cRNA
Kind of assay: cell-based. It counts as cell-based.

In the next assay the target is T2, rat nAChR α2β4 (Rattus norvegicus, UniProt P12389+P12392).
T2 construct: expressed in transfected cells; host or cells: Xenopus oocytes injected with cRNA
As to the kind of experiment: cell-based. The note with it: IC50 α2β4.

In the next assay the target is T3, rat nAChR α3β4 (Rattus norvegicus, UniProt P04757+P12392).
T3 construct: expressed in transfected cells; host or cells: Xenopus oocytes injected with cRNA
T3 sequence (P04757 26-499 limits assumed): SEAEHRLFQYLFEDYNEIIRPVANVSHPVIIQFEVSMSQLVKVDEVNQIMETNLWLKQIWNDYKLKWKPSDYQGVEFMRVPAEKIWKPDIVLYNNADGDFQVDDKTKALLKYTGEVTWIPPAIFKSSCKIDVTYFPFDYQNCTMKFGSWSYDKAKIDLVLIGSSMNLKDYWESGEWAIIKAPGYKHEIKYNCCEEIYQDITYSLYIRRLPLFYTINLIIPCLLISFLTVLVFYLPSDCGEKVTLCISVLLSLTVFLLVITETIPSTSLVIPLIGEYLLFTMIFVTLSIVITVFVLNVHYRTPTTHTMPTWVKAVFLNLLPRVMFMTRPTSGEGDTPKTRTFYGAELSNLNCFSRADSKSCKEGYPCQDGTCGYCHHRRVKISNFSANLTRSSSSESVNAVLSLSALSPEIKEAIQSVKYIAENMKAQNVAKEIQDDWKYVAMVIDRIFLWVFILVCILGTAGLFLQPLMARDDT
T3 sequence (P12392 21-495 limits assumed): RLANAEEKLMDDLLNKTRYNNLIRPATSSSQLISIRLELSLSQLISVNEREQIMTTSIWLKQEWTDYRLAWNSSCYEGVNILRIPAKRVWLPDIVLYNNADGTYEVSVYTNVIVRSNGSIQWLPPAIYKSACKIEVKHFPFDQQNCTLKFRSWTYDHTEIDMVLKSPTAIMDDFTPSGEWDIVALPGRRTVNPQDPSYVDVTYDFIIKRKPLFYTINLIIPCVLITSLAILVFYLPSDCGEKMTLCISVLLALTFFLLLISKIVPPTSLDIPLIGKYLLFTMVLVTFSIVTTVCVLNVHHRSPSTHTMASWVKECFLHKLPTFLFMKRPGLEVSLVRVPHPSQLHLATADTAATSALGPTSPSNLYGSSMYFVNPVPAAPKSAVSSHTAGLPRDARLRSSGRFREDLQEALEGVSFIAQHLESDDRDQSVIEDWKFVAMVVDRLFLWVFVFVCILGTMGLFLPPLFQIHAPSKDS
Kind of assay: cell-based.

In another assay the target is T4, rat nAChR α4β4 (Rattus norvegicus, UniProt P09483+P12392).
T4 construct: expressed in transfected cells; host or cells: Xenopus oocytes injected with cRNA
T4 sequence (P09483 31-630 limits assumed): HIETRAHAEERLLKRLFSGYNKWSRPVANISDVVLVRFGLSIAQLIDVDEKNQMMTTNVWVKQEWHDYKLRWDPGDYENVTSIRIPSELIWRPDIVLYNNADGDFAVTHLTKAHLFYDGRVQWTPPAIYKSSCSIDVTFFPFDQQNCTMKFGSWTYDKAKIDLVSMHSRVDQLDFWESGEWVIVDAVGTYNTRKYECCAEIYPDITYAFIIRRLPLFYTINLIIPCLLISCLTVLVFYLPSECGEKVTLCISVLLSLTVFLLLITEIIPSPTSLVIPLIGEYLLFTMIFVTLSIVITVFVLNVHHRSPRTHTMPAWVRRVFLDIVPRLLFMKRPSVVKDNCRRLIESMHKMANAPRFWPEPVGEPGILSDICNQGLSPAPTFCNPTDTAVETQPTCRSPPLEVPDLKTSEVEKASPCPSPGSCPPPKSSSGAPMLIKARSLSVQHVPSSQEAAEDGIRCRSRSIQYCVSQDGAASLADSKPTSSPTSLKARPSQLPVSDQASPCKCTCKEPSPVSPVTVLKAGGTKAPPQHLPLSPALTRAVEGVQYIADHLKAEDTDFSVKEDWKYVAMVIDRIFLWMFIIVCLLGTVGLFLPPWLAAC
T4 sequence (P12392 21-495 limits assumed): as the sequence (P12392 21-495 limits assumed) above
As to the kind of experiment: cell-based.

The next assay has as its target T5, rat nAChR α2β2 (Rattus norvegicus, UniProt P12389+P12390).
T5 construct: expressed in transfected cells; host or cells: Xenopus oocytes injected with cRNA
Kind of assay: cell-based.

In another assay the target is T6, rat nAChR α7 (Rattus norvegicus, UniProt Q05941).
T6 construct: expressed in transfected cells; host or cells: Xenopus oocytes injected with cRNA
T6 sequence (Q05941 23-502 limits assumed): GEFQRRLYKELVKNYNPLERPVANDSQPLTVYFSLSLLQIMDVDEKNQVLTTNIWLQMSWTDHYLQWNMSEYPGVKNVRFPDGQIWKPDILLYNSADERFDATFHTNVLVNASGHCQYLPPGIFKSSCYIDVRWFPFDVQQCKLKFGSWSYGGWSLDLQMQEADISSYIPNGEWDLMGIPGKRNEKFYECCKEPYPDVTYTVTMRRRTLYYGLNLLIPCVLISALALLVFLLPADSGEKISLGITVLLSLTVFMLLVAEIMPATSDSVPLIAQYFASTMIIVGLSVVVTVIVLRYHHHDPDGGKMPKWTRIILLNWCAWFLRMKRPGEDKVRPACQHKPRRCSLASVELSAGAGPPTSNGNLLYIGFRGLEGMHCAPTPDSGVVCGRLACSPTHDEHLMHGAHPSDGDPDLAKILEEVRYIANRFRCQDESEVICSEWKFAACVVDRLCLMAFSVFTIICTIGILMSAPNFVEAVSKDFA
Kind of assay: cell-based.

In the next assay the target is T7, rat nAChR α4β2 (Rattus norvegicus, UniProt P09483+P12390).
T7 construct: expressed in transfected cells; host or cells: Xenopus oocytes injected with cRNA
T7 sequence (P09483 31-630 limits assumed): as the sequence (P09483 31-630 limits assumed) above
T7 sequence (P12390 25-500 limits assumed): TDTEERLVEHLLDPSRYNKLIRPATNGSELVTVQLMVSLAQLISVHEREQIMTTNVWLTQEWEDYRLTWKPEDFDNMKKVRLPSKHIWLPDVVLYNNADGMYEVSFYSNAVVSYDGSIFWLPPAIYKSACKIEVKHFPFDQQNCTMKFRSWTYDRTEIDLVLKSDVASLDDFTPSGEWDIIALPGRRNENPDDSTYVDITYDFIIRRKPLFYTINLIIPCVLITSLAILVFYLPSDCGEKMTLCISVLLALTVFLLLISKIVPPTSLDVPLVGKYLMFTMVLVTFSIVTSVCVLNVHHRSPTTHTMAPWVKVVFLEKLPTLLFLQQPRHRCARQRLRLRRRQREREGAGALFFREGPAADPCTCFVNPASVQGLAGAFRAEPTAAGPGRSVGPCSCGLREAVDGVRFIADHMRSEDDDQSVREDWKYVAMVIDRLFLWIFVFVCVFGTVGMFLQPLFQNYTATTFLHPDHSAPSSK
As to the kind of experiment: cell-based.

For a further assay, the target named is T8, rat nAChR α9α10 (Rattus norvegicus, UniProt P43144+Q9JLB5).
T8 construct: expressed in transfected cells; host or cells: Xenopus oocytes injected with cRNA
T8 sequence (P43144 26-479 limits assumed): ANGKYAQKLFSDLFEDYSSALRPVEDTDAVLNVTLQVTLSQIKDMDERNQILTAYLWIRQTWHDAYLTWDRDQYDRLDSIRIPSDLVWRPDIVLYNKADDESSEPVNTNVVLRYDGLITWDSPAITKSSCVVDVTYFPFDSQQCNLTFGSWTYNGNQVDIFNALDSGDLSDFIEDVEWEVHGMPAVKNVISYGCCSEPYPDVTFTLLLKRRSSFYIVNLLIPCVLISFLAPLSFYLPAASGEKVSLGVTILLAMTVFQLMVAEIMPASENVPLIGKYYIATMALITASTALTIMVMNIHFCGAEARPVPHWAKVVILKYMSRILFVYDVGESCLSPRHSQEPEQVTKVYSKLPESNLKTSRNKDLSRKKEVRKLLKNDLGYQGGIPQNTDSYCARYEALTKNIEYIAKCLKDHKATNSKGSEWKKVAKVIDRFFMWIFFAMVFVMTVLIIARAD
T8 sequence (Q9JLB5 25-447 limits assumed): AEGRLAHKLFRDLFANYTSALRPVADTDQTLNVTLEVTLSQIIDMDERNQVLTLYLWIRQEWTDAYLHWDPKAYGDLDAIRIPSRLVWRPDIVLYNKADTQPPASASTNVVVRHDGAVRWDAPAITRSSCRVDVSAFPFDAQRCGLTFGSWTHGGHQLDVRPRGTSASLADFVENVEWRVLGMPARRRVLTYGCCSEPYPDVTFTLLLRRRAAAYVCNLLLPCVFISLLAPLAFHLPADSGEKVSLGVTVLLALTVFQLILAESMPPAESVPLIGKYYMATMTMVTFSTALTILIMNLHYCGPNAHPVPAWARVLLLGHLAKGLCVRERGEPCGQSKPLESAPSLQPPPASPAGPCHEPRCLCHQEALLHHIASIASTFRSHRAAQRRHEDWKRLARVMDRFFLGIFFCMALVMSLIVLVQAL
Kind of assay: cell-based.

For a further assay, the target named is T9, rat nAChR α6/α3β2β3 (Rattus norvegicus, UniProt P04757+P12390+P12391+P43143).
T9 construct: expressed in transfected cells; host or cells: Xenopus oocytes injected with cRNA
As to the kind of experiment: cell-based.

Assay [2] concerns the target T1, rat nAChR α3β2. Kind of assay: cell-based. It counts as cell-based. This is another data set of the same source.
In assay [3] the target is T1, rat nAChR α3β2. To be noted: cited from earlier work.

Like-named read-outs stand apart in the source and are kept apart here. Positions of bridges follow the written chain, without caps; N, C: chain ends. Residues, ends and D or L forms follow the SMILES beside them.

By IC50 is commonly meant the concentration that gives 50% inhibition. As a reminder, the kon is the second-order rate constant of association. As a reminder, the koff is a measure of how fast the partners let go of each other.

T1 sequence (P04757 26-499 limits assumed): as the sequence (P04757 26-499 limits assumed) above
T1 sequence (P12390 25-500 limits assumed): as the sequence (P12390 25-500 limits assumed) above
T2 sequence (P12389 28-511 limits assumed): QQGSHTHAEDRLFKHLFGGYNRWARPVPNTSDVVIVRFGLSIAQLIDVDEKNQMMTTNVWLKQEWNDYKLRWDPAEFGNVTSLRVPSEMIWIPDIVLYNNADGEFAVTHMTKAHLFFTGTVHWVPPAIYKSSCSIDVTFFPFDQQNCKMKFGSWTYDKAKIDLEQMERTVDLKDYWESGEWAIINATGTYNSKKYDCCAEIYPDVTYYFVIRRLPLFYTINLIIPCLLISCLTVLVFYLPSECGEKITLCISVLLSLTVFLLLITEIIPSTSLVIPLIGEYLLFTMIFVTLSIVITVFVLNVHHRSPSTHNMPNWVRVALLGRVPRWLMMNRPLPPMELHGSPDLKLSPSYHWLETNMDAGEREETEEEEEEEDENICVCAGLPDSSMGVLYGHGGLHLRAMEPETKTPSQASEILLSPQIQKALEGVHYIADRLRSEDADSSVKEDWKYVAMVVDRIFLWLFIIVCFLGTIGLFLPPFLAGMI
T2 sequence (P12392 21-495 limits assumed): as the sequence (P12392 21-495 limits assumed) above
T5 sequence (P12389 28-511 limits assumed): as the sequence (P12389 28-511 limits assumed) above
T5 sequence (P12390 25-500 limits assumed): as the sequence (P12390 25-500 limits assumed) above

In the case of `CC(C)C[C@@H]1NC(=O)[C@H](CCC(=O)O)NC(=O)[C@@H]2CCCN2C(=O)[C@H](CC(N)=O)NC(=O)[C@H](CO)NC(=O)[C@H](C(C)C)NC(=O)[C@H](Cc2c[nH]cn2)NC(=O)[C@@H]2CSSC[C@H](NC(=O)[C@H](CCC(=O)O)NC(=O)[C@@H]3CCCN3)C(=O)N[C@@H](CSSC[C@@H](C(N)=O)NC1=O)C(=O)N[C@@H]([C@@H](C)O)C(=O)N[C@@H](Cc1c[nH]cn1)C(=O)N1CCC[C@H]1C(=O)N[C@@H](C)C(=O)N2` [Mr1.7[H13N]] (H-PECCTHPACHVSNPELC-NH2; disulfide 3-9, 4-17), the IC50 on rat nAChR α3β2 [1] is 541 nM; against rat nAChR α2β4, over 10 µM; against rat nAChR α3β4 it was over 10 µM; against rat nAChR α4β4, over 10 µM; at rat nAChR α2β2, over 10 µM; against rat nAChR α7, 2420 nM. The IC50 was over 10 µM against rat nAChR α4β2 and 1830 nM on rat nAChR α9α10.
With `CC(C)C[C@@H]1NC(=O)[C@H](CCC(=O)O)NC(=O)[C@@H]2CCCN2C(=O)[C@H](Cc2c[nH]cn2)NC(=O)[C@H](CO)NC(=O)[C@H](C(C)C)NC(=O)[C@H](Cc2c[nH]cn2)NC(=O)[C@@H]2CSSC[C@H](NC(=O)[C@H](CCC(=O)O)NC(=O)[C@@H]3CCCN3)C(=O)N[C@@H](CSSC[C@@H](C(N)=O)NC1=O)C(=O)N[C@@H]([C@@H](C)O)C(=O)N[C@@H](Cc1c[nH]cn1)C(=O)N1CCC[C@H]1C(=O)N[C@@H](C)C(=O)N2` [Mr1.7] (H-PECCTHPACHVSHPELC-NH2; disulfide 3-9, 4-17), the IC50 against rat nAChR α2β4 is over 10 µM; against rat nAChR α3β4, over 10 µM; on rat nAChR α4β4 it was over 10 µM; against rat nAChR α2β2, over 10 µM; on rat nAChR α7, over 10000 nM; at rat nAChR α4β2 it was over 10 µM. For the same compound, the IC50 against rat nAChR α9α10 stood at 186 nM; at rat nAChR α6/α3β2β3 it was 284 nM. Moreover, the kon on rat nAChR α3β2 [2] was 91300 M⁻¹ s⁻¹. The koff on rat nAChR α3β2 [2] (SEM) was 0.00312 s⁻¹.
With Vc1.1, the IC50 on rat nAChR α3β2 [3] was 5.53 µM.
